Reference: article PMC9369610, “Pro-Apoptotic and Pro-Autophagic Properties of Cardenolides from Aerial Parts of Pergularia tomentosa” (Molecules, 2022)

Assays:
Caco-2 cells = experiment: MTT cell viability assay, IC50 in Caco-2 cells; type: cell-based; details: Homo sapiens, 24 h, SE less than 10% of value
Procedure: The human liver hepatocellular carcinoma cell line, HepG2, and the human adenocarcinoma of colon cell line, Caco-2, were cultured in Eagle’s Minimum Essential medium supplemented with 1% (v/v) non-essential amino acids, 0.2 mM L-glutamine, 50 units/mL penicillin, 50 μg/mL streptomycin and 10% (v/v) or 20% (v/v) fetal bovine serum (Sigma Aldrich, Milan, Italy) for HepG2 or Caco-2, respectively. The human embryonal lung fibroblast cell line, MRC5, was cultured in Dulbecco’s Modified Eagle medium (Sigma Aldrich, Milan, Italy) supplemented with 10% (v/v) fetal bovine serum, 0.2 mM L-glutamine, 50 units/mL penicillin and 50 μg/mL streptomycin. HUVEC cells were cultured in endothelial growth medium-2, supplemented with fetal bovine serum (2%), VEGF (0.1%), rH FGF-B (0.4%), rH EGF (0.1%), GA-1000 (0.1%), hydrocortisone (0.04%), R3-IGF-1 (0.1%), heparin (0.1%) and ascorbic acid (0.1%). Cells were maintained at 37 °C in a 5% CO2, 95% air-humidified atmosphere and passaged twice a week. Cell lines were obtained from Interlab Cell Line Collection, Istituto Nazionale per la Ricerca sul Cancro, Genoa, Italy. HUVEC were obtained from Lonza (Milan, Italy).
An MTT assay was used to analyse cell viability. Cells were seeded in 96 wells at the density of 2 × 10^4/cm^2 and, after 24 h, they were treated with P. tomentosa compounds or with the vehicle (DMSO). After a further 24 h of treatment, 0.5 mg/mL of MTT was added to the cell medium and incubated for 1.5 h at 37 °C. The resulting formazan crystals were dissolved in 100 μL of DMSO and absorbances were measured at 595 nm and 655 nm. The background signals at 655 nm were subtracted from 595 nm signals, and data were expressed as a percent of cell viability. The concentration of each compound that is required for 50% inhibition in vitro (IC50) was calculated as described in Husseini et al.. IC50 values were obtained for Caco-2, HepG2 and MRC5 cells by performing MTT assays with concentrations ranging from 0.01 μg/mL to 5 μg/mL.

HepG2 cells [1] = experiment: BrdU incorporation (proliferation) assay; type: cell-based, human; details: HepG2, 1 μM, 24 h
Procedure: Cell proliferation was analysed by a BrdU (Roche Diagnostics SpA, Monza, Italy) incorporation assay, as previously described. Briefly, HepG2 cells, seeded at adensity of 3 × 10^3/cm^2 on round glass cover slips, were treated for 24 h with P. tomentosa compounds at 1 μM. Then, BrdU was added to cell medium (final concentration, 100 μM) for 1 h. Cells were fixed (in 3% paraformaldehyde, 10 min), permeabilised (in 0.2% Triton X-100, 5 min) and treated with HCl 1.5 N (5 min). Finally, cover slips were incubated with a monoclonal antibody against BrdU (Sigma-Aldrich, Milan, Italy), 1:100, and with a TRITC-conjugated secondary antibody, 1:100. After staining with Hoechst, cover slips were mounted with Mowiol (Sigma, Milan, Italy). […] Images were acquired with Axiocam MRc5 and processed with ImageJ Launcher. The number of cells into S-phase was expressed as the ratio between the number of cells incorporating BrdU and the total number of cells.

HepG2 cells [2] = experiment: Scratch-wound-healing assay; type: cell-based, human; details: HepG2, 1 μM, 24, 48 and 72 h
Procedure: Cells were seeded at a density of 5 × 10^4 cells/well in 24-well plates and allowed to grow for 72 h, reaching confluence. Mitomycin C (10 μg/mL) was added to inhibit proliferation, and then a sterile 2–10 μL pipette tip was used to perform a vertical scratch in the monolayer of each well. Detached cells were removed by washing with phosphate-buffered saline. Then, 300 μL of fresh medium containing P. tomentosa compounds (1 μM) or vehicle was added to each well and incubated for 72 h. Images of migrating cells were taken at 0, 24, 48 and 72 h, by using an Olympus CKX41 fluorescent microscope (Olympus Italia srl, Segrate, Italy) and elaborated by the ImageJ software. For each scratch, wound width was calculated as the average distance between the edges in four different sites. Then, reductions in wound wights at 24, 48 and 72 h were expressed as % of the width at time zero.

HepG2 cells [3] = experiment: Transwell migration assay; type: cell-based, human; details: HepG2, 1 μM, 18 h
Procedure: Transwell filters (coated with collagen) in serum-free media containing 0.1% of BSA, with a PET membrane with 8 μm pores (BD Biosciences, Milan, Italy), were rehydrated for 2 h at 37 °C. HepG2 were seeded in the upper chambers at a density of 75 × 10^3 cells in MEM with 0.1% BSA and treated with or without 1 µM of Pergularia compounds. MEM−0.1%BSA, supplemented with 10% FBS, was added to the lower chamber as chemoattractant. Control wells without 10% FBS were included to assess random migration. After incubation at 37 °C in 5% CO2 for 18 h, the migrated cells were fixed with 4% paraformaldehyde for 5 min, permeabilised with methanol for 20 min and stained with crystal violet 0.5% for 15 min at room temperature. The cells on the lower side of the filter were allowed to dry before counting. Eight separate bright-field images were randomly acquired of each filter using an Olympus CKX41 Image Analyzer. The cells in each image were counted and analysed compared to control-transfected cells.

caspase-3 in HepG2 cells = experiment: Western blot of cleaved caspase-3; type: cell-based, human; details: HepG2, 2 μM, 7 h, Western blot densitometry
Procedure: (§1) To analyse the protein levels of p53, caspase-3, GRP78, LC3 and p62, HepG2 cells were treated with P. tomentosa compounds (1 or 2 μM) or with DMSO for the indicated times; then, Western blot analyses were performed. Briefly, cells were lysed in RIPA buffer (20 mM Tris-HCl, pH 7.5, 150 mM NaCl, 1 mM EDTA, 1 mM dithiothreitol, 0.1% sodium dodecyl sulphate, 1% triton X-100, 1 mM orthovanadate, and a cocktail of inhibitors (Sigma-Aldrich, Milan, Italy)). After separation on a sodium dodecyl sulphate-polyacrylamide gel electrophoresis and transfer to a poly-vinylidene fluoride membrane (Euroclone, Milan, Italy), the following primary antibodies were used, at a dilution of 1:1000 in tris-buffered saline containing 1% non-fat dry milk, overnight at 4 °C: mouse anti-p53 antibody, mouse anti-MAP LC3 β antibody, mouse anti-p62 antibody (DBA, Milan, Italy), mouse anti-GRP78 antibody, and mouse anti-caspase 3 antibody (Thermo Fisher Scientific, Milan, Italy). For normalisation, a mouse anti-GAPDH antibody (Microtech, Naples, Italy) was used.

LC3 in HepG2 cells = experiment: Western blot of LC3 (LC3-I and LC3-II); type: cell-based, human; details: HepG2, 1 μM, 24 h
Procedure: as §1

C[C@@H]1C[C@@H](O)[C@]2(O)O[C@@H]3C[C@@]4(C=O)[C@@H](CC[C@@H]5[C@@H]4CC[C@]4(C)[C@@H](C6=CC(=O)OC6)CC[C@]54O)C[C@H]3O[C@@H]2O1 [Compound 5, calactin]
IC50 (Caco-2 cells): 650 nM
effect on BrdU incorporation / cell cycle progression (HepG2 cells [1]): significantly affected cell cycle progression
effect on wound closure (HepG2 cells [2]): interfered with the wound closure after 48 and 72 h
effect on transwell migration (HepG2 cells [3]): most potent
cleaved caspase-3 (caspase-3 activation) (caspase-3 in HepG2 cells): most active
LC3-I level (LC3 in HepG2 cells): reduction in the LC3-I form
LC3-II level (LC3 in HepG2 cells): more marked
